Measurements from patent publication US20070298994A1, “Use of 3-Mercapto-3-Methyl-Hexan-1-Ol for Use as Malodour Standard” (SYMRISE GMBH & CO. KG, priority 2004, published 2007).

test: Raw material test against sweat odour (masking of malodour standard, assessor panel); settings: Table 1; 1 μl fragrance + 5 μl 3-mercapto-3-methyl-hexan-1-ol (0.1% in DPG) in 7 l air, 15 h at approx. 20° C.; scale 1 to 9, malodour standard mixture = 6; mean of at least 8 assessors

| Structure (SMILES) | Increase In intensity | Odour reduction value |
| --- | --- | --- |
| CC1=CC(C)C(C(=O)C(C)(C)C)CC1 (stereo not drawn) | 1.4 | 3.5 |
| CCOC(C=C(C)CCC=C(C)C)OCC | −0.7 | 4.3 |
| CC1COCc2cc3c(cc21)C(C)(C)C(C)C3(C)C (stereo not drawn) | −2.3 | 4.3 |
| CC1OC(C)C2Cc3ccccc3C2O1 (stereo not drawn) | 1.1 | 4.1 |
| COC1C=C2C(C)(C)C3CCC2(C3)C(C)(C)C1 (stereo not drawn) | 0.5 | 4.3 |
| CC(=CCC1CCC=C(C)C1(C)C)CO (stereo not drawn) | 0.0 | 3.0 |
| CC(=CO)CCC1CC=C(C)C1(C)C (stereo not drawn) | 0.3 | 3.8> |
| CC1=CCC=C(C)C(O)CCC=C(C)CC1 (stereo not drawn) | 1.5 | 4.5 |
| Cc1cccc(CC(C)(C)CO)c1 | 1.2 | 4.4 |
| CC(C)=CCC(C)(C)C(=O)C(C)C | 1.0 | 3.3 |
| CC(C)=CCCC(C)=CCCC(C)C=O (stereo not drawn) | 0.2 | 3.8 |
| CC(=O)C1(C)CC2=C(CCCC2(C)C)CC1C (stereo not drawn) | 0.2 | 3.4 |
| CC(=O)C(C)=CC1C(C)=CCCC1(C)C (stereo not drawn) | −0.7 | 5.1 |
| CCc1ccc(CC(C)(C)C=O)cc1 | −1.9 | 3.7 |
| CCCC(=O)C(CC)Cc1ccccc1 (stereo not drawn) | 0.1 | 4.6 |
| CC(=O)C(C)=C(C)C(C)C(C)(C)C (stereo not drawn) | 1.6 | 3.2 |
| C=CC(C)(O)CCC=C(C)CC (stereo not drawn) | 1.0 | 3.1 |
| CC(C)=CCC(C)(C)C1OCC=CCO1 | 0.0 | 3.7 |
| CC1=CCC(C(C)CC=O)CC1 (stereo not drawn) | 0.9 | 3.9 |
| C/C=C/C(=O)C1CCC(C)(C)C=C1C (stereo not drawn) | 1.0 | 5.0 |
| O=C1CCCCCCCCC/C=C/CCCO1 | 0.0 | 4.0 |
| CC(C)=CCCC(C)CCOCC=O (stereo not drawn) | 1.5 | 3.8 |
| CCCCCCC1OC(=O)CC1C (mixture of isomers) [(E/Z) 5-HEXYLDIHYDRO-4-METHYL-2-FURANONE] | 1.2 | 4.2 |
| CCC(O)CC[C@H]1[C@@H](C)CCCC1(C)C (relative stereo) | 0.8 | 3.1 |
| CC1=C[C@H](C)[C@H](C=O)CC1 (relative stereo) | −1.3 | 4.4 |

| Structure (SMILES) | Increase In intensity | Odour reduction value |
| --- | --- | --- |
| CC=CC(=O)C1C(C)=CCCC1(C)C (stereo in doubt) [ALPHA-DAMASCONE] | −2.0 | 4.1 |
| c1ccc2c(c1)CC1COCOC21 (stereo not drawn) [1,4A,9,9A-TETRAHYDRO-2,4-DIOXA-FLUORENE] | 1.0 | 4.3 |
| CCCCCCO [1-HEXANOL] | 1.6 | 3.6 |
| COC(=O)C1CC2(C)C=CC1(C(C)C)CC2 (stereo not drawn) [1-ISOPROPYL-4-METHYL-BICYCLO[2.2.2]OCT-5-ENE-2-CARBOXYLIC ACID METHYL ESTER] | −0.8 | 4.2 |
| O=C1CCCCCCCCCCCCCCO1 [1.15-PENTADECANOLIDE] | 1.1 | 3.6 |
| COC(=O)c1ccc(O)c(C)c1O [2,4-DIHYDROXY-3-METHYLBENZOIC ACID METHYL ESTER] | 0.0 | 3.0 |
| COC(=O)c1c(C)cc(O)c(C)c1O [2,4-DIHYDROXY-3.6-DIMETHYLBENZOIC ACID METHYL ESTER] | 1.3 | 3.8 |
| CCOC(=O)C1=C(C)C=CCC1(C)C [2,6,6-TRIMETHYL-1,3-CYCLOHEXADIENE CARBOXYLIC ACID ETHYL ESTER] | −2.8 | 3.0 |
| CC(=O)c1cc2ccccc2o1 [2-ACETYLBENZOFURAN] | 1.2 | 3.3 |
| CCCCCCCC1CCCC1=O (stereo not drawn) [2-HEPTYL-CYCLOPENTANONE] | 1.3 | 4.5 |
| COCc1ccc(O)c(OC)c1 [2-METHOXY-4-METHOXYMETHYL-PHENOL] | −0.1 | 4.1 |
| COCc1ccccc1O [2-METHOXYMETHYLPHENOL] | −2.1 | 3.8 |
| CC(CC#N)CCc1ccccc1 (stereo not drawn) [2-METHYL-4-PHENYL BUTYL CYANIDE] | 0.2 | 5.3 |
| CC(CO)CCCc1ccccc1 (stereo not drawn) [2-METHYL-5-PHENYL PENTANOL] | −0.5 | 5.1 |
| CCCC(C)C(=O)OCC (stereo not drawn) [2-METHYL-PENTANOIC ACID ETHYL ESTER] | 0.2 | 4.4 |
| CCCCCCCCCC(C)C=O (stereo not drawn) [2-METHYLUNDECANAL] | 0.7 | 3.2 |
| COC(=O)c1ccccc1N=CC(C)Cc1ccc(C(C)(C)C)cc1 (stereo not drawn) [2-[[3-[4-1 1-DIMETHYLETHYL)PHENYL)-2-METHYLPROPLIDEN]AMINO]-BENZOIC ACID METHYL ESTER] | −0.4 | 3.3 |
| O=Cc1ccc2c(c1)OCO2 [3,4-METHYLENDIOXYBENZALDEHYDE] | −1.2 | 3.7 |
| CC(C)=CCCC(C)CC#N (stereo not drawn) [3,7-DIMETHYL-6-OCTENE NITRILE] | 0.5 | 4.5 |
| CCCCC1COCC(C)C1OC(C)=O (stereo not drawn) [3-BUTYL-TETRAHYDRO-5-METHYL-PYRAN-4-OL ACETATE] | 1.0 | 3.0 |
| CC(C)c1ccc(CC=O)cc1 [4-(1-METHYLETHYL)-PHENYL ACETALDEHYDE] | 1.7 | 3.8 |
| COc1ccc(C=O)cc1 [4-METHOXYBENZALDEHYDE] | 1.0 | 4.7 |
| CC(=O)CC(C)(C)c1ccccc1 [4-METHYL-4-PHENYL-2-PENTANONE] | 1.4 | 4.2 |
| CCCCCCC1(C)CCC(=O)O1 (stereo not drawn) [4-METHYL-GAMMA-DECALACTONE] | 0.9 | 5.6 |

same assay, conditions: Table 2 (raw materials without adequate malodour-reducing action); 1 μl fragrance + 5 μl 3-mercapto-3-methyl-hexan-1-ol (0.1% in DPG) in 7 l air, 15 h; scale 1 to 9, standard = 6

| Structure (SMILES) | Increase in intensity | Malodour reduction value |
| --- | --- | --- |
| CC(=O)O[C@@H]1C[C@H]2CC[C@]1(C)C2(C)C (racemic) [ACETIC ACID ISOBORNYL ESTER, reference compound] | −0.5 | 2.3 |
| CC=Cc1ccc(OC)cc1 [1-METHOXY-4-PROPENYL BENZENE, reference compound] | 2.0 | 2.0 |

same assay, conditions: Table 3 (adequate malodour-reducing action but significant increase in intensity); 1 μl fragrance + 5 μl 3-mercapto-3-methyl-hexan-1-ol (0.1% in DPG) in 7 l air, 15 h; scale 1 to 9, standard = 6

| Structure (SMILES) | Increase in intensity | Malodour-reduction value |
| --- | --- | --- |
| CC12CCC(CC1)C(C)(C)O2 [1,8-CINEOL, reference compound] | 2.4 | 5.1 |
| CC(C)CCCC(C)CCO (stereo not drawn) [3,7-DIMETHYL OCTANOL, reference compound] | 2.2 | 4.0 |

same assay, conditions: prior-art fragrances examined by the applicant

| Structure (SMILES) | intrinsic odour / perfumistic impression (in words) | reduction in the bad odour based on 3-mercapto-3-methyl-hexan-1-ol (in words) |
| --- | --- | --- |
| CC(C)CCCC(C)CCO (stereo not drawn) [3,7-DIMETHYL OCTANOL, reference compound] | strong perfumistic impression | leads to a malodour reduction |
